Laboratory results from article PMC10721329, “Quisinostat is a brain-penetrant radiosensitizer in glioblastoma” (JCI Insight, 2023).
Values joined by “and” are separate entries in the source; they are usually repeats but may differ in a detail not shown here. Equal values may be shown once.

Assay: Stability in human plasma at 37°C
Format: in vitro ADME
Details: for %stability in human plasma, mean / stability in human plasma, [QST], % of control: 37 C; for %stability in human plasma, mean: mean of 3; for stability in human plasma, [QST], % of control: single data points
Protocol: Hydroxamic acid–based compounds have been reported to display poor stability and high plasma clearance due to the presence of arylesterases and carboxylesterases in rodent blood ([34]). Therefore, we measured the stability of QST in mouse plasma and brain to determine whether drug degradation occurred during our sample preparations and equilibrium dialyses for the determination of unbound drug level (performed at 37°C). […] QST degradation was also observed in mouse brain homogenate (Figure 6B). However, perfusion of mice before brain collection prevented rapid drug degradation in the brain matrix. […] Degradation of QST can also be constrained if plasma and brain samples are processed at 4°C (Supplemental Figure 4A). All subsequent sample preparations were therefore performed on ice-cold baths to avoid degradation of QST in our PK analyses. […] The observed stability is probably due to the absence of esterases in human matrices, which are responsible for degradation of QST ([34]). Because we employed QST in several in vitro studies (Figures 1–4), the stability of the molecule was also tested in the cell media used to culture GSCs (neurobasal medium; see Methods).
Stability Study in Mouse Plasma, Mouse Brain, Human Plasma, Human Brain, and Neural […]
The stability of QST was determined in BALB/c mouse plasma, male nude athymic perfused and nonperfused mouse brain homogenate (1:9 w/v of PBS; pH 7.4), human brain (obtained from VRL Eurofins) homogenate (1:4 w/v of PBS; pH 7.4), pooled human plasma (Innovative Research), and neurobasal media. QST stock solutions (1 mM) were prepared in acetonitrile, subsequently diluted in a 40% methanol mixture, and added t o the matrices to make final concentrations of 100 nM or 10 nM. Then 50 or 30 µL of either plasma or brain homogenate containing QST were aliquoted into 1.5-mL microcentrifuge tubes (Eppendorf) and were incubated at either 4 °C or 37 °C for 0, 2, 4, 6, 12, or 24 hours (n = 3 at each time point). […]
Plasma and brain […]
homogenate samples were stored at −80 °C until LC-MS/MS analysis. […]

In the case of `Cn1cc(CNCC2CCN(c3ncc(C(=O)NO)cn3)CC2)c2ccccc21` [QST, quisinostat], the “%stability in human plasma, mean” value (10 nM, 0 hrs) is reported as 100.0 % of control, the “stability in human plasma, [QST], % of control” value (“stability … % of control” for short) (10 nM, 0 hrs) is reported as 96.2 % of control and 101.9 % of control and the “stability … % of control” value (10 nM, 2 hrs) is reported as 98.7 % of control and 101.4 % of control and 99.6 % of control. The “%stability in human plasma, mean” value (10 nM, 6 hrs) was 99.5 % of control, the “stability … % of control” value (10 nM, 6 hrs) was 100.4 % of control and 102 % of control and 96.1 % of control and the “%stability in human plasma, mean” value (10 nM, 24 hrs) was 97.7 % of control. For the same compound, the “stability … % of control” value (10 nM, 24 hrs) was 93.7 % of control and 94.6 % of control and 104.9 % of control, the “%stability in human plasma, mean” value (100 nM, 0 hrs) was 100.0 % of control and the “stability … % of control” value (100 nM, 0 hrs) was 96.3 % of control and 100 % of control and 103.7 % of control. For the same compound, the “%stability in human plasma, mean” value (100 nM, 2 hrs) was 102.1 % of control, the “stability … % of control” value (100 nM, 2 hrs) was 105.4 % of control and 102.2 % of control and 98.8 % of control and the “%stability in human plasma, mean” value (100 nM, 6 hrs) was 103.6 % of control. For the same compound, the “stability … % of control” value (100 nM, 6 hrs) was 105.9 % of control and 102.8 % of control and 102 % of control, the “%stability in human plasma, mean” value (100 nM, 24 hrs) was 99.0 % of control and the “stability … % of control” value (100 nM, 24 hrs) was 101.6 % of control and 97 % of control and 98.2 % of control. The “stability in human plasma” value (37°C) was “completely stable”.
